{"source": "patent US20230413809A1", "about": "“DISINFECTANT COMPOSITION FOR SURFACES AND THE PREPARATION THEREOF” (Onyx Lotus, LLC, priority 2020, published 2023)", "origin": "cited, not measured here", "conditions": "general statement on surfactant detergency, no test described", "data": [{"smiles": "CCCCCCCCCCCCCCCC[N+](C)(C)C.[Br-]", "note": "[CTAB, cetyltrimethylammonium bromide]", "values": [{"measurement": "Critical micellar concentration (CMC)", "value": 0.92, "unit": "mM"}]}, {"smiles": "O=C([O-])CC(C(=O)[O-])S(=O)(=O)O.[Na+].[Na+]", "note": "(centres unmarked) [sodium sulfosuccinate]", "values": [{"measurement": "Critical micellar concentration (CMC)", "value": 0.6, "unit": "mM"}]}]}
